Article PMC6283615, “Anilinoquinoline based inhibitors of trypanosomatid proliferation” (PLoS Neglected Tropical Diseases, 2018)
Converted amounts (≈) assume the structure as drawn. Read-outs that look alike come from different tables or passages of the source.

What was measured:
[1] = tested on: T. congolense IL3000; test: In vitro drug sensitivity assay for T. congolense (72 h); format: cell-based; details: Trypanosoma congolense, IL3000 strain
Experimental: In vitro drug sensitivity assay for T. congolense (72 h): Compounds were tested in vitro for efficacy against the IL3000 T. congolense (drug sensitive) strain which was originally derived from the Trans Mara I strain, isolated from a bovine in 1966 in Kenya. […] Compounds were assayed in at least three separate, independent experiments and an 11-point dilution curve was used to determine the EC50 values. Bloodstream form trypanosomes were supported in HMI-9 medium containing 20% bovine serum and were incubated with test compounds for 69 h at 34°C in a humidified atmosphere containing 5% CO2. Thereafter, 10 μL of Resazurin dye (12.5 mg in 100 mL of phosphate-buffered saline, Sigma-Aldrich, Buchs, Switzerland) was added for an additional 3 h. Plates were read using a fluorescence plate reader (Spectramax, Gemini XS, Bucher Biotec, Basel, Switzerland) using an excitation wavelength of 536 nm and an emission wavelength of 588 nm.

[2] = LogD7.4; format: physicochemical; details: pH 7.4
[3] = Aqueous solubility; format: physicochemical
[4] = Human plasma protein binding; format: in vitro ADME; details: for fraction unbound: read-out: Human PPB (converted)
[5] = Human liver microsome intrinsic clearance; format: in vitro ADME; details: for microsomal CLint: liver microsomes
[6] = tested on: HepG2 cells; test: Drug toxicity to HepG2 cells (MTT, 48 h); format: cell-based, human; details: tested concentration ranges based on compound solubility
Outline: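 HepG2 cells plated overnight, then exposed 48 h to twelve 1.6-fold dilutions (57–10,000 ng/mL) in duplicate at 37° C, 5% CO2. MTT added for 1 h at room temperature; formazan dissolved in acidified isopropanol, absorbance read.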

[7] = tested on: L. major amastigote; test: L. major intracellular amastigote luciferase assay in RAW 264.7 macrophages; format: cell-based, Leishmania major; details: Leishmania major, RAW264.7; intracellular amastigotes in RAW 264.7 macrophages, 96 h
Outline: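 Murine RAW 264.7 macrophages were infected overnight with luciferase-expressing L. major metacyclic promastigotes (MOI 1:10). Non-internalized parasites were washed off before 96 h compound exposure (0.5–10,000 ng/mL) at 37°C, 5% CO2.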

[8] = Rat hepatocyte intrinsic clearance; format: in vitro ADME; details: for hepatocyte CLint: hepatocytes
[9] = tested on: T. cruzi amastigote (Tulahuen strain expressing β-galactosidase); test: Intracellular T. cruzi assay in 3T3 cells (beta-galactosidase, 96 h); format: cell-based, Trypanosoma cruzi; details: for EC50: Trypanosoma cruzi, TULAHUEN, read-out: T. cruzi amastigote EC50
Outline: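 3T3 cells in phenol-red-free DMEM with 2% FBS were infected with Tulahuen β-galactosidase trypomastigotes, 5×10^4 per well, and exposed to compounds from 50 μM in 1:2 serial dilutions, in triplicate. After 96 h at 37°C, 5% CO2, 500 μM CPRG in PBS with 0.5% NP40 was added for 4 h; absorbance was read at 590–595 nm.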

[10] = tested on: T. vivax STIB 719 / ILRAD 560; test: Ex vivo drug sensitivity assay for T. vivax (48 h); format: cell-based; details: Trypanosoma vivax, STIB719, 48 h
Experimental: Ex vivo drug sensitivity assay for T. vivax (48 h): Compounds were tested ex vivo against the STIB 719 / ILRAD 560 T. vivax (drug sensitive) strain which originated from the Y486 strain, isolated from a naturally infected bovine in 1976 in Zaria, Nigeria. Compounds were assayed in at least three separate, independent experiments and an 11-point dilution curve was used to determine the EC50 values. Bloodstream form trypanosomes were harvested from a highly parasitaemic mouse (via cardiac puncture) and were incubated with test compounds for 45 h at 37°C in a humidified atmosphere containing 5% CO2, supported in HMI-9 medium containing 20% bovine serum. Thereafter, Resazurin dye was added to monitor trypanosome viability as described in the preceding section.

[11] = tested on: NIH/3T3 cells; test: Drug toxicity to 3T3 cells (Alamar Blue, 96 h); format: cell-based
Experimental: In a 96-well plate, 5×10^4 NIH/3T3 (ATCC CRL-1658) cells (purchased from ATCC) in DMEM without phenol red supplemented with 2% FBS were added to each well. Cells were incubated for 2 h to allow for attachment. Compounds were added in triplicates at 200 μM and in serial dilutions 1:2 and incubated at 37°C, 5% CO2 for 96 h. […] Following incubation, 10 μL of Alamar Blue (ThermoFisher) were added to each well and cells incubated at 37°C, 5% CO2 for 4 h. Absorbance was read at 590–595 nm.

[12] = tested on: T. b. brucei (strain 427); test: T. b. brucei proliferation assay (PrestoBlue, 48 h); format: cell-based, Trypanosoma brucei brucei; details: Trypanosoma brucei
Outline: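 T. b. brucei strain 427, 2.5×10^3 per well in HMI-9, exposed to compounds from 50 μM in 1:2 dilutions, in triplicate. Incubated 48 h at 37°C, 5% CO2. PrestoBlue added for 4 h more, fluorescence read at ex 530/em 590 nm.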

[13] = tested on: P. fal. D6; parameters: method as in PMID 26087257, PMID 29301082; details: previously reported; cited from earlier work
[14] = parameters: method as in PMID 29301082; details: lapatinib, Fig 1; cited from earlier work

SMILES	EC50 [1] [nM]	LogD7.4 [2]	solubility [3] [µM]	Human PPB [4] [%]	Human Liver Microsome CLint [5] [µL/min/mg]	HepG2 TC50 [6] [µM]	EC50 [7] [nM]	hepatocyte CLint [8] [µL/min/1e6 cells]	EC50 ([9]; NIH3T3, 96 h) [nM]	EC50 [10] [nM]	3T3 TC50 [11] [µM]	logD [2]	microsomal CLint [5] [µL/min/mg]	EC50 [12] [nM]	fraction unbound [4]	SI (T. cruzi) ([9]; selectivity index calculated relative to 3T3 cells)	Rat Hepatocyte CLint [8] [μL/min/10^6 cells]	EC50 [13] [nM]	EC50 ([9]; NIH3T3, intracellular in 3T3 cells, 96 h) [nM]	solubility [14] [µM]
COc1ccc(Nc2ccnc3cc(-c4cnc(N5CCN(C)CC5)nc4)ccc23)cc1Cl [Compound 23]	140	4.3	< 1	98	170	> 3	2000	45	620	40	4.9									
COc1ccc(Nc2ccnc3cc(-c4ccc(S(=O)(=O)N5CCN(C)CC5)cc4)ccc23)cc1Cl [Compound 6]	860		100 (≈ 52.3 µg/mL)	99			1400	44	3800	160		< 1	270	220						
Fc1cccc(COc2ccc(Nc3ccnc4cc(-c5cn[nH]c5)ccc34)cc2Cl)c1 [Compound 16]	470		12 (≈ 5.34 µg/mL)				830	17	920	150		4.6	< 3	110	< 0.01	2.5				
CN1CCN(S(=O)(=O)c2ccc(-c3ccc4c(Nc5ccc(OCc6cccc(F)c6)c(Cl)c5)ccnc4c3)cc2)CC1 [Compound 1]	140		0.3 (≈ 0.185 µg/mL)				1600		730	40			140	79	< 0.01		20	19		
CS(=O)(=O)CCNCc1ccc(-c2ccc3ncnc(Nc4ccc(OCc5cccc(F)c5)c(Cl)c4)c3c2)o1 [Lapatinib, lapatinib, reference compound]							11000											470	13000	12 (≈ 6.97 µg/mL)
